Laboratory results published in US8071797B2 (priority 2008, dated 2011).

Biological target: T1, HCV polymerase (NS5B570n-Con1) (Hepatitis C virus genotype 1b, UniProt Q9WMX2)
T1 construct: contains a 21 amino acid deletion at the C-terminus relative to the full-length HCV polymerase; 6-histidine (N); made in house; host or cells: E. coli BL21 (DE) pLysS
Assay: HCV NS5B RNA polymerase activity assay
Type: biochemical, HCV Con1 strain
Conditions: IC50 NS5B polymerase assay, Table I
Description: The enzymatic activity of HCV polymerase (NS5B570n-Con1) was measured as the incorporation of radiolabeled nucleotide monophosphates into acid insoluble RNA products. Unincorporated radiolabeled substrate was removed by filtration and scintillant was added to the washed and dried filter plate containing radiolabeled RNA product. The amount of RNA product generated by NS5B570-Con1 at the end of the reaction was directly proportional to the amount of light emitted by the scintillant.
The N-terminal 6-histidine tagged HCV polymerase, derived from HCV Con1 strain, genotype 1b (NS5B570n-Con1) contains a 21 amino acid deletion at the C-terminus relative to the full-length HCV polymerase and was purified from E. coli strain BL21 (DE) pLysS. The construct, containing the coding sequence of HCV NS5B Con1 (GenBank accession number AJ242654) was inserted into the plasmid construct pETI 7b, downstream of a T7 promoter expression cassette and transformed into E. coli. A single colony was grown overnight as a starter culture and later used inoculate 10 L of LB media supplemented with 100 μg/mL ampicillin at 37° C. Protein expression was induced by the addition of 0.25 mM isopropyl-β-D-thiogalactopyranoside (IPTG) when optical density at […] of the culture was between 0.6 and 0.8 and cells were harvested after 16 to 18 h at 30° C. NS5B570n-Con1 was purified to homogeneity using a three-step protocol including subsequent column chromatography on Ni-NTA, SP-Sepharose HP and Superdex 75 resins.
Each 50 μl enzymatic reaction contained 20 nM RNA template derived from the complementary sequence of the Internal Ribosome Entry Site (cIRES), 20 nM NS5B570n-Con1 enzyme, 0.5 μCi of tritiated UTP (Perkin Elmer catalog no. TRK-412; specific activity: 30 to 60 Ci/mmol; stock solution concentration from 7.5×10^-5 M to 20.6×10^-6 M), 1 μM each ATP, CTP, and GTP, 40 mM Tris-HCl pH 8.0, 40 mM NaCl, 4 mM DTT (dithiothreitol), 4 mM MgCl2, and 5 μl of compound serial diluted in DMSO. Reaction mixtures were assembled in 96-well filter plates (cat #MADVN0B, Millipore Co.) and incubated for 2 h at 30° C. Reactions were stopped by addition of 10% final (v/v) trichloroacetic acid and incubated for 40 min at 4° C. Reactions were filtered, washed with 8 reaction volumes of 10% (v/v) trichloroacetic acetic acid, 4 reaction volumes of 70% (v/v) ethanol, air dried, and 25 μl of scintillant (Microscint 20, Perkin-Elmer) was added to each reaction well.
The amount of light emitted from the scintillant was converted to counts per minute (CPM) on a Topcount® plate reader (Perkin-Elmer, Energy Range: Low, Efficiency Mode Normal, Count Time: 1 min, Background Subtract: none, Cross talk reduction: Off).
Data was analyzed in Excel® (Microsoft®) and ActivityBase® (idbsg). The reaction in the absence of enzyme was used to determine the background signal, which was subtracted from the enzymatic reactions. Positive control reactions were performed in the absence of compound, from which the background corrected activity was set as 100% polymerase activity. All data was expressed as a percentage of the positive control. The compound concentration at which the enzyme-catalyzed rate of RNA synthesis was reduced by 50% (IC50) was calculated by fitting
[formula] equation (t) to the data.where “Y” corresponds to the relative enzyme activity (in %), “% Min” is the residual relative activity at saturating compound concentration, “% Max” is the relative maximum enzymatic activity, “X” corresponds to the compound concentration, and “S” is the Hill coefficient (or slope).
With `CNC(=O)c1c(-c2ccc(Nc3ccccn3)cc2)oc2cc(N(CCO)S(C)(=O)=O)c(OC)cc12` [Compound I-123] the IC50 was 156 nM. Work on `CNC(=O)c1c(-c2ccc(Oc3ccc(F)cc3)cc2)oc2cc(N(CCS(C)(=O)=O)S(C)(=O)=O)c(C3CC3)cc12` [Compound I-83, 5-cyclopropyl-2-[4-(4-fluoro-phenoxy)-phenyl]-6-[methanesulfonyl-(2-methanesulfonyl-ethyl)-amino]-benzofuran-3-carboxylic acid methylamide] yielded an IC50 of 29 nM. For `CNC(=O)c1c(-c2ccc(Oc3ccccc3)cc2)oc2cc(N3CCNS3(=O)=O)c(C3CC3)cc12` [Compound I-102, 5-Cyclopropyl-6-(1,1-dioxo-1λ^6-[1,2,5]thiadiazolidin-2-yl)-2-(4-phenoxy-phenyl)-benzofuran-3-carboxylic acid methylamide], the IC50 was 20 nM. Compound `CNC(=O)c1c(-c2ccc(Oc3ccc(F)cc3)cc2)oc2cc(N(CCN)S(C)(=O)=O)c(C3CC3)cc12.Cl` [Compound I-74] has an IC50 of 83 nM. `CNC(=O)c1c(-c2ccc(Nc3ccc(C(C)C)cc3)cc2)oc2cc(N(CCO)S(C)(=O)=O)c(OC)cc12` [Compound I-6] showed an IC50 of 544 nM. Compound `CNC(=O)c1c(-c2ccc(Oc3ccc(F)cc3)cc2)oc2cc(N(CCO)S(C)(=O)=O)ccc12` [Compound I-64, 2-[4-(4-Fluoro-phenoxy)-phenyl]-6-[(2-hydroxy-ethyl)-methanesulfonyl-amino]-benzofuran-3-carboxylic acid methylamide] has an IC50 of 415 nM. In the case of `CNC(=O)c1c(-c2ccc(Oc3ccc(F)cc3F)cc2)oc2cc(N(CCO)S(C)(=O)=O)c(OC(C)C)cc12` [Compound I-39], the IC50 is reported as 195 nM. Work on `CNC(=O)c1c(-c2ccc(Oc3ccc(F)cc3)cc2)oc2cc(C3CCCN3C(C)=O)c(OC)cc12` (stereo not drawn) [Compound I-109, 6-(1-acetyl-pyrrolidin-2-yl)-2-[4-(4-fluoro-phenoxy)-phenyl]-5-methoxy-benzofuran-3-carboxylic acid methylamide] yielded an IC50 of 44 nM. In the case of `CNC(=O)c1c(-c2ccc(Oc3ccc(F)cc3)cc2)oc2cc(N([C@H]3CC[C@H](O)CC3)S(C)(=O)=O)c(C3CC3)cc12` [Compound I-100], the IC50 is reported as 25 nM. Work on `CNC(=O)c1c(-c2ccc(Oc3ccc(F)cc3)cc2)oc2cc(N(CCSC)S(C)(=O)=O)c(C3CC3)cc12` [Compound I-81, 5-Cyclopropyl-2-[4-(4-fluoro-phenoxy)-phenyl]-6-[methanesulfonyl-(2-methylsulfanyl-ethyl)-amino]-benzofuran-3-carboxylic acid methylamide] yielded an IC50 of 16 nM. Work on `CNC(=O)c1c(-c2ccc(Oc3ccc(F)cc3)cc2)oc2cc(N(CC(C)O)S(C)(=O)=O)c(C3CC3)cc12` (stereo not drawn) [Compound I-68] yielded an IC50 of 26 nM. With `CNC(=O)c1c(-c2ccc(Oc3ccc(F)cc3)cc2)oc2cc(N(CC3CCOCC3)S(C)(=O)=O)c(C3CC3)cc12` [Compound I-56] the IC50 was 157 nM. `CNC(=O)c1c(-c2ccc(Oc3ccc(F)cc3)cc2)oc2cc(N(Cc3cncnc3)S(C)(=O)=O)c(C3CC3)cc12` [Compound I-88] gave an IC50 of 26 nM. In the case of `CNC(=O)c1c(-c2ccc(Oc3ccc(F)cc3)cc2)oc2cc(N(CC3COC(=O)N3)S(C)(=O)=O)c(C3CC3)cc12` (stereo not drawn) [Compound I-108], the IC50 is reported as 26 nM. With `CCN(c1cc2oc(-c3ccc(Nc4ccc(F)cc4)cc3)c(C(=O)NC)c2cc1OC)S(C)(=O)=O` [Compound I-17] the IC50 was 81 nM. Compound `CNC(=O)c1c(-c2ccc(Oc3ccc(F)cc3)cc2)oc2cc(N(C3CCNCC3)S(C)(=O)=O)c(C3CC3)cc12` [Compound I-76] has an IC50 of 376 nM. In the case of `CCN(c1cc2oc(-c3ccc(Nc4ccccc4F)cc3)c(C(=O)NC)c2cc1OC)S(C)(=O)=O` [Compound I-18], the IC50 is reported as 5 nM. With `CNC(=O)c1c(-c2ccc(Oc3ccccc3F)cc2)oc2cc(N(C)S(C)(=O)=O)c(C)cc12` [Compound I-59, 2-[4-(2-Fluoro-phenoxy)-phenyl]-6-(methanesulfonyl-methyl-amino)-5-methyl-benzofuran-3-carboxylic acid methylamide] the IC50 was 93 nM. In the case of `CNC(=O)c1c(-c2ccc(Oc3ccc(F)cc3)cc2)oc2cc(C3CCCN3)c(OC)cc12` (stereo not drawn) [Compound I-111, 2-[4-(4-Fluoro-phenoxy)-phenyl]-5-methoxy-6-pyrrolidin-2-yl-benzofuran-3-carboxylic acid methylamide], the IC50 is reported as 933 nM. In the case of `CNC(=O)c1c(-c2ccc(Oc3ccc(F)cc3)cc2)oc2cc(N(C3CCN(S(C)(=O)=O)C3)S(C)(=O)=O)c(C3CC3)cc12` (stereo not drawn) [Compound I-94, 5-cyclopropyl-2-[4-(4-fluoro-phenoxy)-phenyl]-6-[methanesulfonyl-(1-methanesulfonyl-pyrrolidin-3-yl)-amino]-benzofuran-3-carboxylic acid methylamide], the IC50 is reported as 28 nM. In the case of `CNC(=O)c1c(-c2ccc(Oc3ccccc3Cl)cc2)oc2cc(N(CCO)S(C)(=O)=O)c(OC)cc12` [Compound I-44], the IC50 is reported as 82 nM. With `CNC(=O)c1c(-c2ccc(Oc3ccc(F)cc3)cc2)oc2cc(N(CC(O)CN)S(C)(=O)=O)c(C3CC3)cc12` (stereo not drawn) [Compound I-97, 6-[(3-Amino-2-hydroxy-propyl)-methanesulfonyl-amino]-5-cyclopropyl-2-[4-(4-fluoro-phenoxy)-phenyl]-benzofuran-3-carboxylic acid methylamide] the IC50 was 48 nM. `CNC(=O)c1c(-c2ccc(Oc3ccc(F)cc3)cc2)oc2cc(N(C(C)CN)S(C)(=O)=O)c(C3CC3)cc12` (stereo not drawn) [Compound I-95] showed an IC50 of 60 nM. With `CNC(=O)c1c(-c2ccc(Oc3ccc(F)cc3)cc2)oc2cc(N(C)S(C)(=O)=O)c(OC)cc12` [Compound I-35] the IC50 was 51 nM. `CCN(c1cc2oc(-c3ccc(Oc4ccc(F)cc4)cc3)c(C(=O)NC)c2cc1OC)S(C)(=O)=O` [Compound I-24] showed an IC50 of 130 nM. `CNC(=O)c1c(-c2ccc(Oc3ccc(F)cc3)cc2)oc2cc(N(CC(F)(F)CN)S(C)(=O)=O)c(C3CC3)cc12` [Compound I-115, 6-[(3-Amino-2,2-difluoro-propyl)-methanesulfonyl-amino]-5-cyclopropyl-2-[4-(4-fluoro-phenoxy)-phenyl]-benzofuran-3-carboxylic acid methylamide] showed an IC50 of 29 nM. For `CNC(=O)c1c(-c2ccc(Oc3ccc(F)cc3F)cc2)oc2cc(N(CCO)S(C)(=O)=O)c(C3CC3)cc12` [Compound I-58], the IC50 was 85 nM. `CNC(=O)c1c(-c2ccc(Oc3ccc(F)cc3)cc2)oc2cc(N(CCCSC)S(C)(=O)=O)c(C3CC3)cc12` [Compound I-113] showed an IC50 of 18 nM. `CNC(=O)c1c(-c2ccc(Oc3ccc(F)cc3)cc2)oc2cc(N(C3CCOC3)S(C)(=O)=O)c(C3CC3)cc12` (stereo not drawn) [Compound I-84] showed an IC50 of 155 nM. For `CNC(=O)c1c(-c2ccc(Oc3ccc(F)cc3)cc2)oc2cc(N(CCNC(C)=O)S(C)(=O)=O)c(C3CC3)cc12` [Compound I-79], the IC50 was 68 nM. For `CNC(=O)c1c(-c2ccc(Nc3ccc(F)cn3)cc2)oc2cc(N(CCO)S(C)(=O)=O)c(OC)cc12` [Compound I-124], the IC50 was 195 nM. For `CNC(=O)c1c(-c2ccc(Nc3ccc(C)cc3)cc2)oc2cc(N(CCO)S(C)(=O)=O)c(OC)cc12` [Compound I-20], the IC50 was 92 nM. In the case of `CNC(=O)c1c(-c2ccc(Oc3ccc(F)cc3)cc2)oc2cc(N(CCOC)S(C)(=O)=O)c(C3CC3)cc12` [Compound I-57], the IC50 is reported as 110 nM.

Tested on: not given
Assay: not given
Conditions: not given
Work on `CNC(=O)c1c(-c2ccc(Nc3ccccn3)cc2)oc2cc(N(CCO)S(C)(=O)=O)c(OC)cc12` [Compound I-123] yielded a melting point of 241 to 243 °C. With `CNC(=O)c1c(-c2ccc(Oc3ccc(F)cc3)cc2)oc2cc(N(CCS(C)(=O)=O)S(C)(=O)=O)c(C3CC3)cc12` [Compound I-83, 5-cyclopropyl-2-[4-(4-fluoro-phenoxy)-phenyl]-6-[methanesulfonyl-(2-methanesulfonyl-ethyl)-amino]-benzofuran-3-carboxylic acid methylamide] the melting point was 158 to 160 °C. With `CNC(=O)c1c(-c2ccc(Oc3ccccc3)cc2)oc2cc(N3CCNS3(=O)=O)c(C3CC3)cc12` [Compound I-102, 5-Cyclopropyl-6-(1,1-dioxo-1λ^6-[1,2,5]thiadiazolidin-2-yl)-2-(4-phenoxy-phenyl)-benzofuran-3-carboxylic acid methylamide] the melting point was 183.4 to 184.5 °C. Compound `CNC(=O)c1c(-c2ccc(Oc3ccc(F)cc3)cc2)oc2cc(N(CCN)S(C)(=O)=O)c(C3CC3)cc12.Cl` [Compound I-74] has a melting point of 223 to 224 °C. With `CNC(=O)c1c(-c2ccc(Nc3ccc(C(C)C)cc3)cc2)oc2cc(N(CCO)S(C)(=O)=O)c(OC)cc12` [Compound I-6] the melting point was 223.9 to 234.5 °C. Compound `CNC(=O)c1c(-c2ccc(Oc3ccc(F)cc3)cc2)oc2cc(N(CCO)S(C)(=O)=O)ccc12` [Compound I-64, 2-[4-(4-Fluoro-phenoxy)-phenyl]-6-[(2-hydroxy-ethyl)-methanesulfonyl-amino]-benzofuran-3-carboxylic acid methylamide] has a melting point of 214.6 to 215.7 °C.
